In US20230143604A1, “QW DOSING OF GIP RECEPTOR AGONIST PEPTIDE COMPOUNDS AND USES THEREOF” (TAKEDA PHARMACEUTICAL COMPANY LIMITED, priority 2020, published 2023):
Starred links: 1 amine or outer side, 2 acyl side, 3 side chain; linkers in the order of their positions; H or OH if unused. Non-standard residues stand in square brackets, D forms with d. Residues, ends and D or L forms follow the SMILES beside them. Groups on a side chain read outwards from the residue. *: point of attachment. C20 diacid = O=C(O)CCCCCCCCCCCCCCCCCCC(=O)*; C17 diacid = O=C(O)CCCCCCCCCCCCCCCC(=O)*; γGlu = O=C(O)[C@H](CCC(=O)[*:2])N[*:1]; NMeY = CN[C@@H](Cc1ccc(O)cc1)C(=O)O; AEEA = NCCOCCOCC(=O)O; Aib = CC(C)(N)C(=O)O

Test: Solubility in phosphate buffer pH 7.4
Details: pH 7.4, aqueous buffer
Method in brief: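 3 mg of peptide treated with 100 μL portions of 200 mM phosphate buffer pH 7.4, sonicating/vortexing up to 1 min, with further buffer added until fully dissolved. Solubility then quantified by HPLC.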

[1] = pH 7.4 Phosphate Buffer - Solubility, 200 mM Phosphate buffer pH 7.4

| SMILES | solubility [1] [µg/mL] | solubility [µg/mL] |
| --- | --- | --- |
| CC[C@H](C)[C@H](NC(=O)[C@H](Cc1ccccc1)NC(=O)[C@@H](NC(=O)CNC(=O)[C@H](CCC(=O)O)NC(=O)C(C)(C)NC(=O)[C@H](Cc1ccc(O)cc1)NC)[C@@H](C)O)C(=O)N[C@@H](CO)C(=O)N[C@@H](CC(=O)O)C(=O)N[C@@H](Cc1ccc(O)cc1)C(=O)N[C@@H](CO)C(=O)N[C@H](C(=O)NC(C)(C)C(=O)N[C@@H](CC(C)C)C(=O)N[C@@H](CC(=O)O)C(=O)N[C@@H](CCCNC(=N)N)C(=O)N[C@@H](CCCCNC(=O)COCCOCCNC(=O)COCCOCCNC(=O)CC[C@H](NC(=O)CC[C@H](NC(=O)CCCCCCCCCCCCCCCC(=O)O)C(=O)O)C(=O)O)C(=O)N[C@@H](C)C(=O)N[C@@H](CCC(N)=O)C(=O)NC(C)(C)C(=O)N[C@@H](CC(N)=O)C(=O)N[C@@H](Cc1ccccc1)C(=O)N[C@H](C(=O)N[C@@H](CC(N)=O)C(=O)N[C@@H](Cc1c[nH]c2ccccc12)C(=O)N[C@@H](CC(C)C)C(=O)N[C@@H](CC(C)C)C(=O)N[C@@H](C)C(=O)N[C@@H](CCC(N)=O)C(=O)N[C@@H](CO)C(=O)N1CCC[C@H]1C(=O)N[C@@H](CO)C(=O)N[C@@H](CO)C(=O)NCC(=O)N[C@@H](C)C(=O)N1CCC[C@H]1C(=O)N1CCC[C@H]1C(=O)N1CCC[C@H]1C(=O)N[C@@H](CO)C(N)=O)C(C)C)[C@@H](C)CC [Compound 270] (H-[NMeY][Aib]EGTFISDYSI[Aib]LDRK([AEEA-AEEA-γGlu-γGlu-C17 diacid])AQ[Aib]NFVNWLLAQSPSSGAPPPS-NH2) | ≥ 7500 | – |
| CC[C@H](C)[C@H](NC(=O)[C@H](Cc1ccccc1)NC(=O)[C@@H](NC(=O)CNC(=O)[C@H](CCC(=O)O)NC(=O)C(C)(C)NC(=O)[C@H](Cc1ccc(O)cc1)NC)[C@@H](C)O)C(=O)N[C@@H](CO)C(=O)N[C@@H](CC(=O)O)C(=O)N[C@@H](Cc1ccc(O)cc1)C(=O)N[C@@H](CO)C(=O)N[C@H](C(=O)NC(C)(C)C(=O)N[C@@H](CC(C)C)C(=O)N[C@@H](CC(=O)O)C(=O)N[C@@H](CCCNC(=N)N)C(=O)N[C@@H](CCCCNC(=O)COCCOCCNC(=O)COCCOCCNC(=O)CC[C@H](NC(=O)CC[C@H](NC(=O)CCCCCCCCCCCCCCCC(=O)O)C(=O)O)C(=O)O)C(=O)N[C@@H](C)C(=O)N[C@@H](CCC(N)=O)C(=O)NC(C)(C)C(=O)N[C@@H](CC(N)=O)C(=O)N[C@@H](Cc1ccccc1)C(=O)N[C@H](C(=O)N[C@@H](CC(N)=O)C(=O)N[C@@H](Cc1c[nH]c2ccccc12)C(=O)N[C@@H](CC(C)C)C(=O)N[C@@H](CC(C)C)C(=O)N[C@@H](C)C(=O)N[C@@H](CCC(N)=O)C(=O)N[C@@H](CCCNC(=N)N)C(=O)NCC(=O)NCC(=O)NCC(=O)NCC(=O)N[C@@H](CO)C(N)=O)C(C)C)[C@@H](C)CC [Compound 271] (H-[NMeY][Aib]EGTFISDYSI[Aib]LDRK([AEEA-AEEA-γGlu-γGlu-C17 diacid])AQ[Aib]NFVNWLLAQRGGGGS-NH2) | – | ≥ 6000 |
| CC[C@H](C)[C@H](NC(=O)[C@H](CO)NC(=O)[C@H](Cc1ccc(O)cc1)NC(=O)[C@H](CC(=O)O)NC(=O)[C@H](CO)NC(=O)[C@@H](NC(=O)[C@H](Cc1ccccc1)NC(=O)[C@@H](NC(=O)CNC(=O)[C@H](CCC(=O)O)NC(=O)C(C)(C)NC(=O)[C@H](Cc1ccc(O)cc1)NC)[C@@H](C)O)[C@@H](C)CC)C(=O)N[C@@H](C)C(=O)N[C@@H](CC(C)C)C(=O)N[C@@H](CC(=O)O)C(=O)N[C@@H](CCCNC(=N)N)C(=O)NC(C)(C)C(=O)N[C@@H](C)C(=O)N[C@@H](CCC(N)=O)C(=O)NC(C)(C)C(=O)N[C@@H](CCCCNC(=O)COCCOCCNC(=O)COCCOCCNC(=O)CC[C@H](NC(=O)CC[C@H](NC(=O)CCCCCCCCCCCCCCCCCCC(=O)O)C(=O)O)C(=O)O)C(=O)N[C@@H](Cc1ccccc1)C(=O)N[C@H](C(=O)N[C@@H](CC(N)=O)C(=O)N[C@@H](Cc1c[nH]c2ccccc12)C(=O)N[C@@H](CC(C)C)C(=O)N[C@@H](CC(C)C)C(=O)N[C@@H](C)C(=O)N[C@@H](CCC(N)=O)C(=O)N[C@@H](CCCNC(=N)N)C(N)=O)C(C)C [Compound 272] (H-[NMeY][Aib]EGTFISDYSIALDR[Aib]AQ[Aib]K([AEEA-AEEA-γGlu-γGlu-C20 diacid])FVNWLLAQR-NH2) | – | ≥ 7500 |
| CC[C@H](C)[C@H](NC(=O)[C@H](CO)NC(=O)[C@H](Cc1ccc(O)cc1)NC(=O)[C@H](CC(=O)O)NC(=O)[C@H](CO)NC(=O)[C@@H](NC(=O)[C@H](Cc1ccccc1)NC(=O)[C@@H](NC(=O)CNC(=O)[C@H](CCC(=O)O)NC(=O)C(C)(C)NC(=O)[C@H](Cc1ccc(O)cc1)NC)[C@@H](C)O)[C@@H](C)CC)C(=O)N[C@@H](C)C(=O)N[C@@H](CCCCNC(=O)CNC(=O)CNC(=O)CNC(=O)CNC(=O)CNC(=O)CCCCCCCCCCCCCCCCC(=O)O)C(=O)N[C@@H](CC(=O)O)C(=O)N[C@@H](CCCNC(=N)N)C(=O)NC(C)(C)C(=O)N[C@@H](C)C(=O)N[C@@H](CCC(N)=O)C(=O)NC(C)(C)C(=O)N[C@@H](CC(N)=O)C(=O)N[C@@H](Cc1ccccc1)C(=O)N[C@H](C(=O)N[C@@H](CC(N)=O)C(=O)N[C@@H](Cc1c[nH]c2ccccc12)C(=O)N[C@@H](CC(C)C)C(=O)N[C@@H](CC(C)C)C(=O)N[C@@H](C)C(=O)N[C@@H](CCC(N)=O)C(=O)N[C@@H](CO)C(=O)N1CCC[C@H]1C(=O)N[C@@H](CO)C(=O)N[C@@H](CO)C(=O)NCC(=O)N[C@@H](C)C(=O)N1CCC[C@H]1C(=O)N1CCC[C@H]1C(=O)N1CCC[C@H]1C(=O)N[C@@H](CO)C(N)=O)C(C)C [Compound 273] | ≥ 6000 | – |
| CC[C@H](C)[C@H](NC(=O)[C@H](CO)NC(=O)[C@H](Cc1ccc(O)cc1)NC(=O)[C@H](CC(=O)O)NC(=O)[C@H](CO)NC(=O)[C@@H](NC(=O)[C@H](Cc1ccccc1)NC(=O)[C@@H](NC(=O)CNC(=O)[C@H](CCC(=O)O)NC(=O)C(C)(C)NC(=O)[C@H](Cc1ccc(O)cc1)NC)[C@@H](C)O)[C@@H](C)CC)C(=O)N[C@@H](C)C(=O)N[C@@H](CCCCNC(=O)CNC(=O)CNC(=O)CNC(=O)CNC(=O)CNC(=O)CCCCCCCCCCCCCCCCC(=O)O)C(=O)N[C@@H](CC(=O)O)C(=O)N[C@@H](CCCNC(=N)N)C(=O)NC(C)(C)C(=O)N[C@@H](C)C(=O)N[C@@H](CCC(N)=O)C(=O)NC(C)(C)C(=O)N[C@@H](CC(=O)O)C(=O)N[C@@H](Cc1ccccc1)C(=O)N[C@H](C(=O)N[C@@H](CC(N)=O)C(=O)N[C@@H](Cc1c[nH]c2ccccc12)C(=O)N[C@@H](CC(C)C)C(=O)N[C@@H](CC(C)C)C(=O)N[C@@H](C)C(=O)N[C@@H](CCC(N)=O)C(=O)N[C@@H](CCCNC(=N)N)C(=O)N1CCC[C@H]1C(=O)N[C@@H](CO)C(=O)N[C@@H](CO)C(=O)NCC(=O)N[C@@H](C)C(=O)N1CCC[C@H]1C(=O)N1CCC[C@H]1C(=O)N1CCC[C@H]1C(=O)N[C@@H](CO)C(N)=O)C(C)C [Compound 274] | ≥ 10000 | – |
| CC[C@H](C)[C@H](NC(=O)[C@H](Cc1ccccc1)NC(=O)[C@@H](NC(=O)CNC(=O)[C@H](CCC(=O)O)NC(=O)C(C)(C)NC(=O)[C@H](Cc1ccc(O)cc1)NC)[C@@H](C)O)C(=O)N[C@@H](CO)C(=O)N[C@@H](CC(=O)O)C(=O)N[C@@H](Cc1ccc(O)cc1)C(=O)N[C@@H](CO)C(=O)N[C@H](C(=O)NC(C)(C)C(=O)N[C@@H](CCCCNC(=O)CNC(=O)CNC(=O)CNC(=O)CNC(=O)CNC(=O)CCCCCCCCCCCCCCCCC(=O)O)C(=O)N[C@@H](CC(=O)O)C(=O)N[C@@H](CCCNC(=N)N)C(=O)NC(C)(C)C(=O)N[C@@H](C)C(=O)N[C@@H](CCC(N)=O)C(=O)NC(C)(C)C(=O)N[C@@H](CC(N)=O)C(=O)N[C@@H](Cc1ccccc1)C(=O)N[C@H](C(=O)N[C@@H](CC(N)=O)C(=O)N[C@@H](Cc1c[nH]c2ccccc12)C(=O)N[C@@H](CC(C)C)C(=O)N[C@@H](CC(C)C)C(=O)N[C@@H](C)C(=O)N[C@@H](CCC(N)=O)C(=O)N[C@@H](CO)C(=O)N1CCC[C@H]1C(=O)N[C@@H](CO)C(=O)N[C@@H](CO)C(=O)NCC(=O)N[C@@H](C)C(=O)N1CCC[C@H]1C(=O)N1CCC[C@H]1C(=O)N1CCC[C@H]1C(=O)N[C@@H](CO)C(N)=O)C(C)C)[C@@H](C)CC [Compound 275] | < 15000 | – |
| CC[C@H](C)[C@H](NC(=O)[C@H](Cc1ccccc1)NC(=O)[C@@H](NC(=O)CNC(=O)[C@H](CCC(=O)O)NC(=O)C(C)(C)NC(=O)[C@H](Cc1ccc(O)cc1)NC)[C@@H](C)O)C(=O)N[C@@H](CO)C(=O)N[C@@H](CC(=O)O)C(=O)N[C@@H](Cc1ccc(O)cc1)C(=O)N[C@@H](CO)C(=O)N[C@H](C(=O)NC(C)(C)C(=O)N[C@@H](CCCCNC(=O)CNC(=O)CNC(=O)CNC(=O)CNC(=O)CNC(=O)CCCCCCCCCCCCCCCCC(=O)O)C(=O)N[C@@H](CC(=O)O)C(=O)N[C@@H](CCCNC(=N)N)C(=O)NC(C)(C)C(=O)N[C@@H](C)C(=O)N[C@@H](CCC(N)=O)C(=O)NC(C)(C)C(=O)N[C@@H](CC(=O)O)C(=O)N[C@@H](Cc1ccccc1)C(=O)N[C@H](C(=O)N[C@@H](CC(N)=O)C(=O)N[C@@H](Cc1c[nH]c2ccccc12)C(=O)N[C@@H](CC(C)C)C(=O)N[C@@H](CC(C)C)C(=O)N[C@@H](C)C(=O)N[C@@H](CCC(N)=O)C(=O)N[C@@H](CCCNC(=N)N)C(=O)N1CCC[C@H]1C(=O)N[C@@H](CO)C(=O)N[C@@H](CO)C(=O)NCC(=O)N[C@@H](C)C(=O)N1CCC[C@H]1C(=O)N1CCC[C@H]1C(=O)N1CCC[C@H]1C(=O)N[C@@H](CO)C(N)=O)C(C)C)[C@@H](C)CC [Compound 276] | < 15000 | – |
